Eleven compounds from ChEMBL document CHEMBL1127238, “The discovery of L-699,392, a novel potent and orally active leukotriene D4 receptor antagonist” (Bioorg Med Chem Lett, 1994) can be followed below.

The nature of data set [1]: Compound was tested for plasma clearance in rats after 5 mg/kg of intravenous dosing. In kind it is ADME, organism-based. Details: dose 5 mg/kg, route intravenous. The settings on record: rat.
In data set [2] the target is T1, Cysteinyl leukotriene receptor 1 (Cavia porcellus, UniProt Q2NNR5).
T1 sequence (Q2NNR5 whole entry): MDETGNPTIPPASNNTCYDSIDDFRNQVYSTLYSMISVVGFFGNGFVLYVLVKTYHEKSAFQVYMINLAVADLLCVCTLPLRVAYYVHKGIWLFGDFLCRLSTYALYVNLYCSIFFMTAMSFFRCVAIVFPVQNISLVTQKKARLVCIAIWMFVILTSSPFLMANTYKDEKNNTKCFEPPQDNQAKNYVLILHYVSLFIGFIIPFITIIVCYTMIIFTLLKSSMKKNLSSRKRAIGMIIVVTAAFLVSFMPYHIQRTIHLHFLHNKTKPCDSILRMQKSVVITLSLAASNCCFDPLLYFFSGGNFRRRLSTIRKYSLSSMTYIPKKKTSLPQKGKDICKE
Put plainly: Inhibitory activity against binding of [3H]LTD4 to Cysteinyl leukotriene D4 receptor in guinea pig lung membranes. Type of data set: cell membranes, Membrane.

A short description of data set [3]: Apparent bioavailability in squirrel monkey was determined. The following applies: in vivo; read-out: Bioavailabiility. Type of data set: ADME, organism-based.

One may read the clearance as the rate of elimination divided by the concentration. Broadly, the IC50 is the concentration that inhibits the measured activity by half. In turn, `C[C@H](CS[C@@H](CCc1ccccc1C(=O)c1ccccc1)c1cccc(/C=C/c2ccc3ccc(Cl)cc3n2)c1)C(=O)O` displayed a clearance in data set [1] of 18 mL/min/kg. Moreover, the IC50 in data set [2] is 4.3 nM.
Take `CC(=O)c1ccccc1CC[C@H](SC[C@@H](C)C(=O)O)c1cccc(/C=C/c2ccc3ccc(Cl)cc3n2)c1`: the clearance in data set [1] is 11 mL/min/kg. Also, the IC50 in data set [2] amounted to 3 nM. For the same compound, in data set [3], the bioavailability stood at 52%.
With `C[C@H](CS[C@@H](CCc1ccccc1CO)c1cccc(/C=C/c2ccc3ccc(Cl)cc3n2)c1)C(=O)O`, the clearance in data set [1] is 5 mL/min/kg. In data set [2], this compound displayed an IC50 of 3.1 nM.
`C[C@H](CS[C@@H](CCc1ccccc1C=O)c1cccc(/C=C/c2ccc3ccc(Cl)cc3n2)c1)C(=O)O`: the clearance in data set [1] was determined as 6 mL/min/kg. In data set [2], the IC50 came out at 2 nM.
In turn, `COC(=O)c1cccc(CC[C@H](SC[C@@H](C)C(=O)O)c2cccc(/C=C/c3ccc4ccc(Cl)cc4n3)c2)c1` had a clearance in data set [1] of 6 mL/min/kg. Besides, the IC50 in data set [2] turned out to be 7 nM.
For the compound `C[C@H](CS[C@@H](CCc1ccccc1CC(C)(C)O)c1cccc(/C=C/c2ccc3ccc(Cl)cc3n2)c1)C(=O)O`, the clearance in data set [1] was found to be 33 mL/min/kg. Also, the IC50 in data set [2] is 1 nM.
In data set [1], `CC(=O)c1cccc(CC[C@H](SC[C@@H](C)C(=O)O)c2cccc(/C=C/c3ccc4ccc(Cl)cc4n3)c2)c1` displayed a clearance of 2 mL/min/kg. Also, the IC50 in data set [2] worked out at 5.9 nM.
`CCC(=O)c1ccccc1CC[C@H](SC[C@@H](C)C(=O)O)c1cccc(/C=C/c2ccc3ccc(Cl)cc3n2)c1` gave a clearance in data set [1] of 13 mL/min/kg. In addition, the IC50 in data set [2] came out at 3.7 nM.
Turning to `C[C@H](CS[C@@H](CCc1cccc(CO)c1)c1cccc(/C=C/c2ccc3ccc(Cl)cc3n2)c1)C(=O)O`, the clearance in data set [1] was 2.5 mL/min/kg. The compound also had an IC50 in data set [2] of 2.1 nM.
On to `C[C@H](CS[C@@H](CCc1ccccc1C(C)(C)O)c1cccc(/C=C/c2ccc3ccc(Cl)cc3n2)c1)C(=O)O`, for which the clearance in data set [1] amounted to 14 mL/min/kg. For the same compound, the IC50 in data set [2] came to 2.7 nM.
As for `CCOC(=O)c1ccccc1CC[C@H](SC[C@@H](C)C(=O)O)c1cccc(/C=C/c2ccc3ccc(Cl)cc3n2)c1`, in data set [1], the clearance is 4.8 mL/min/kg. This compound also registered a half-maximal inhibitory concentration (IC50) in data set [2] of 3.7 nM.
